This note sets out measurements from patent US4279926A, “Method of relieving pain and treating inflammatory conditions in warm-blooded animals” (priority 1974, dated 1981).

Where a name gives a salt, the structure may show the parent alone.

A short description of one series: clinical. The conditions noted are these: human, in vivo, po, Human blood level, single oral dose 500 mg D,L-lysine salt (Table 5) or equivalent 300 mg sodium salt (Table 6), serum, as free acid.
Series [1] has as its system carrageenin oedema, inflamed paw. As to the kind of experiment: Carrageenin oedema of the rat paw (anti-inflammatory action, paw size/volume). It counts as in vivo, male Wistar rats. The conditions noted are these: oral, Tables 1, 2 and 3. A general note: Carrageenan injected into the paw causes an acute inflammation.
The test system of series [2] is pain threshold in the inflamed paw (carrageenin oedema). As to the kind of experiment: Pain threshold under pressure of the inflamed (carrageenin) rat paw (analgesic action). The conditions noted are these: for Pain threshold - carrageenin oedema: Table 3.
Protocol: At intervals after the treatment, the size of the treated paw and its sensitivity to pain under pressure were evaluated.
A further series in a line: Solubility. It counts as physicochemical.

Protocol for clinical: The blood levels were then determined after 0.5, 1, 1.5, 2, 3, 4 and 5 hours.

For the molecule `CC(C)Cc1ccc(C(C)C(=O)[O-])cc1.[Na+]` (stereo not shown), in “clinical” (subject B), the concentration at 0.5 h is 10500 ng/mL, the concentration at 1 h was 16600 ng/mL, the concentration at 1.5 h is 11000 ng/mL and the concentration at 2 h worked out at 10300 ng/mL. In the series “clinical” (subject B), the concentration at 3 h was 3000 ng/mL, the concentration at 4 h came to 2700 ng/mL and the concentration at 5 h stood at 1400 ng/mL. In “clinical” (subject C), the concentration at 0.5 h is 3800 ng/mL, the concentration at 1 h worked out at 4500 ng/mL, the concentration at 1.5 h amounted to 6000 ng/mL and the concentration at 2 h is 8700 ng/mL. Also, in “clinical” (subject C), the concentration at 3 h is 8700 ng/mL, the concentration at 4 h was 9600 ng/mL and the concentration at 5 h was 4300 ng/mL. In the series “clinical” (subject D), the concentration at 0.5 h was 5500 ng/mL, the concentration at 1 h was found to be 6000 ng/mL, the concentration at 1.5 h was found to be 7000 ng/mL and the concentration at 2 h came to 16300 ng/mL. Besides, in the series “clinical” (subject D), the concentration at 3 h is 13600 ng/mL, the concentration at 4 h was 7300 ng/mL and the concentration at 5 h came out at 6900 ng/mL. In the series “clinical” (subject E), the concentration at 0.5 h was 3300 ng/mL, the concentration at 1 h came to 9800 ng/mL, the concentration at 1.5 h was found to be 8700 ng/mL and the concentration at 2 h came to 7900 ng/mL. In the series “clinical” (subject E), the concentration at 3 h was found to be 9600 ng/mL, the concentration at 4 h amounted to 7000 ng/mL and the concentration at 5 h is 5300 ng/mL. In addition, in “clinical” (subject A), the concentration at 2 h came out at 900 ng/mL, the concentration at 3 h worked out at 1300 ng/mL, the concentration at 4 h is 4200 ng/mL and the concentration at 5 h is 6300 ng/mL. Further, in “clinical” (mean), the concentration at 0.5 h is 8300 ng/mL, the concentration at 1 h came to 13600 ng/mL, the concentration at 1.5 h came to 11600 ng/mL and the concentration at 2 h worked out at 12700 ng/mL. In the series “clinical” (mean), the concentration at 3 h came out at 10800 ng/mL, the concentration at 4 h was 7800 ng/mL and the concentration at 5 h is 5400 ng/mL.
Consider `CC(C)Cc1ccc(C(C)C(=O)O)cc1` (stereo not shown) [Example 3], for which the “Anti-inflammatory and analgesic action compared with free acid and phenyl-butazone” value in series [1] was “as active as or more active than the equivalent dose of the corresponding free acid and is as effective as a double dose of phenyl-butazone”. Also, the “Analgesic action, intravenous, compared with free acid and phenyl-butazone” value in series [2] (i.v., doses of the order of 10 times less, Table 4) was “clearly more active and quicker acting than both the free acid and phenyl-butazone”.
For the molecule `CC(C)Cc1ccc(CC(=O)O)cc1` [Example 4, lysine salt of 2-(4-isobutyl-phenyl)-acetic acid], in “Solubility”, the “Solubility in water” value is “soluble in water”.
In the case of `O=C(O)Cc1ccccc1Oc1ccc(Cl)cc1Cl` [Example 6, lysine salt of 2-(2,4-dichlorophenoxy)-phenyl-acetic acid], in “Solubility”, the “Solubility in water” value was “water-soluble”.
Regarding `C=CCOc1ccc(CC(=O)O)cc1Cl` [Example 10, arginine salt of 2-(3-chloro-4-allyloxyphenyl)-acetic acid], in “Solubility”, the “Solubility in water” value is recorded as “moderately soluble in water”.
Same read-out and setting: as for `CC(C(=O)O)c1ccc(C2CCCCC2)cc1` (stereo not shown) [Example 11, arginine salt of 2-(4-cyclohexyl-phenyl)-propionic acid], the entry is “moderately soluble in water”; as for `CC(C(=O)O)c1cccc(Oc2ccccc2)c1` (stereo not shown) [Example 12, arginine salt of 2-(3-phenoxy-phenyl)-propionic acid], “moderately soluble in water”.
For `CC(C)Cc1ccc(C(C)C(=O)O)cc1` (stereo not shown) [Ibuprofen], the “Pain threshold - carrageenin oedema” value in series [2] (50 mg/kg p.o. (lysine salt: 30 as active substance), 0 hrs, control 101.7 ± 3.19, 50 mg/kg) is given as 101.0 ± 2.85 g; in series [2] (50 mg/kg p.o. (lysine salt: 30 as active substance), 3 hrs, control 52.7 ± 2.00, **p = 0.01, 50 mg/kg), 85.7 ± 4.05 g; in series [2] (50 mg/kg p.o. (lysine salt: 30 as active substance), 5 hrs, control 51.3 ± 2.15, **p = 0.01, 50 mg/kg), 70.7 ± 3.45 g; in series [2] (100 mg/kg p.o. (lysine salt: 60 as active substance), 0 hrs, control 101.7 ± 3.19, 100 mg/kg), 105.3 ± 3.10 g; in series [2] (100 mg/kg p.o. (lysine salt: 60 as active substance), 3 hrs, control 52.7 ± 2.00, **p = 0.01, 100 mg/kg), 104.3 ± 3.51 g; in series [2] (100 mg/kg p.o. (lysine salt: 60 as active substance), 5 hrs, control 51.3 ± 2.15, **p = 0.01, 100 mg/kg), 80.3 ± 5.66 g. In addition, the “Pain threshold - carrageenin oedema” value in series [2] (200 mg/kg p.o. (lysine salt: 120 as active substance), 0 hrs, control 101.7 ± 3.19, 200 mg/kg) amounted to 101.0 ± 3.21 g; in series [2] (200 mg/kg p.o. (lysine salt: 120 as active substance), 3 hrs, control 52.7 ± 2.00, **p = 0.01, 200 mg/kg), 119.7 ± 3.50 g; in series [2] (200 mg/kg p.o. (lysine salt: 120 as active substance), 5 hrs, control 51.3 ± 2.15, **p = 0.01, 200 mg/kg), 85.7 ± 4.70 g.
